From patent publication US4929751A, “Vinyl tricarbonyl compounds and methods of making the same” (Yale University, priority 1987, dated 1990)
Read-outs that look alike come from different tables or passages of the source.

Tests used:
Assay in all cases: growth inhibition of tumor cell line
Format in all cases: cell-based
A2780 (ovarian) = conditions: Homo sapiens
Description: (§1) t-Butyl 2,3-dioxo-pent-4-enoate hydrate (A) was contacted with various cell lines as indicated on Table 1 hereinbelow in the column designated as "CELL" or "TUMOR". […]
(§2) Table 1 reports and illustrates the results obtained by testing t-butyl 2,3-dioxo-pent-4-enoate hydrate. The concentration of this compound found to inhibit the growth of each cell line listed under "CELL" by 50% is reported under "LOG(IC50)" as the logarithm of the concentration. The units of concentration are either molarity in which case an "M" is shown in parentheses next to the LOG(IC50) label, or micrograms per ml, in which case a "W" (for weight) is shown in parenthesis. The cell line names are grouped by disease type and the disease type names are listed on the far left.

[1] = test system: A549 (nonsmall cell lung cancer); conditions: Homo sapiens, logarithm of the concentration inhibiting growth by 50%
Description: as §1, §2

A704 (renal) = conditions: Homo sapiens
Description: as §1, §2

CAKI-1 (renal) = conditions: Homo sapiens
Description: as §1, §2

CCRF-CEM (leukemia) = conditions: Homo sapiens
Description: as §1, §2

DLD-1 (colon) = conditions: Homo sapiens
Description: as §1, §2

[2] = test system: DMS114 (small cell lung cancer); conditions: Homo sapiens
Description: as §1, §2

[3] = test system: EKV-X (nonsmall cell lung cancer); conditions: Homo sapiens, EKVX
Description: as §1, §2

[4] = test system: H125 (nonsmall cell lung cancer); conditions: Homo sapiens, NCI-H125
Description: as §1, §2

[5] = test system: H23 (nonsmall cell lung cancer)
Description: as §1, §2

[6] = test system: H358 (nonsmall cell lung cancer); conditions: Homo sapiens, NCI-H358
Description: as §1, §2

[7] = test system: H460 (nonsmall cell lung cancer); conditions: Homo sapiens, NCI-H460, logarithm of the concentration inhibiting growth by 50%
Description: as §1, §2

[8] = test system: H522 (nonsmall cell lung cancer); conditions: Homo sapiens, NCI-H522
Description: as §1, §2

[9] = test system: H69 (small cell lung cancer)
Description: as §1, §2

[10] = test system: H82 (small cell lung cancer)
Description: as §1, §2

LOVO (colon) = conditions: Homo sapiens
Description: as §1, §2

LOX (melanoma) = test system: LOX (melanoma)
Description: as §1, §2

[11] = test system: MCF-7/ADR (resistant breast cancer); conditions: Homo sapiens
Description: as §1, §2

OVCAR-3 (ovarian) = conditions: Homo sapiens
Description: as §1, §2

OVCAR-4 (ovarian) = conditions: Homo sapiens, logarithm of the concentration inhibiting growth by 50%
Description: as §1, §2

P388 = conditions: Mus musculus
Description: as §1, §2

SK-MEL2 (melanoma) = conditions: Homo sapiens
Description: as §1, §2

[12] = test system: SK-MES-1 (nonsmall cell lung cancer); conditions: Homo sapiens, SK-MES1, logarithm of the concentration inhibiting growth by 50%
Description: as §1, §2

[13] = test system: SNB-75 (central nervous system); conditions: Homo sapiens
Description: as §1, §2

SW620 (colon) = conditions: Homo sapiens
Description: as §1, §2

[14] = test system: TE-671 (central nervous system); conditions: Homo sapiens
Description: as §1, §2

[15] = logarithm of the concentration inhibiting growth by 50%, read-out: LOG(IC50) (converted)

C=CC(=O)C(O)(O)C(=O)OC(C)(C)C [t-butyl 2,3-dioxo-pent-4-enoate hydrate]
IC90 (A2780 (ovarian)): 249 µM
IC50 (A2780 (ovarian); [15]): 63.1 µM
IC50 (A2780 (ovarian); read-out: IC-50 MEAN): 70.3 µM
IC50 [1]: > 251 µM
IC90 (A704 (renal)): 229 µM
IC50 (A704 (renal); [15]): 50.1 µM
IC50 (A704 (renal); read-out: IC-50 MEAN): 46.6 µM
IC90 (CAKI-1 (renal)): 202 µM
IC50 (CAKI-1 (renal); [15]): 50.1 µM
IC50 (CAKI-1 (renal); read-out: IC-50 MEAN): 64.9 µM
IC50 (CCRF-CEM (leukemia); CCRF-CE, logarithm of the concentration inhibiting growth by 50%, read-out: LOG(IC50) (converted)): 7.94 µM
IC50 (CCRF-CEM (leukemia); read-out: IC-50 MEAN): 8.05 µM
IC90 (DLD-1 (colon)): 187 µM
IC50 (DLD-1 (colon); [15]): 39.8 µM
IC50 (DLD-1 (colon); read-out: IC-50 MEAN): 38.4 µM
IC90 ([2]; DMS-114): 264 µM
IC50 ([2]; DMS-114, logarithm of the concentration inhibiting growth by 50%, read-out: LOG(IC50) (converted)): 126 µM
IC50 ([2]; DMS-114, read-out: IC-50 MEAN): 141 µM
IC50 [3, 15]: 200 µM
IC50 ([3]; read-out: IC-50 MEAN): 226 µM
IC50 ([4]; H125, logarithm of the concentration inhibiting growth by 50%, read-out: LOG(IC50) (converted)): 50.1 µM
IC50 ([4]; read-out: IC-50 MEAN): 73.3 µM
IC50 ([5]; H23, logarithm of the concentration inhibiting growth by 50%, read-out: LOG(IC50) (converted)): 50.1 µM
IC90 ([5]; Homo sapiens, NCI-H23): 197 µM
IC50 ([5]; Homo sapiens, NCI-H23, read-out: IC-50 MEAN): 52.7 µM
IC50 ([6]; H358, logarithm of the concentration inhibiting growth by 50%, read-out: LOG(IC50) (converted)): 158 µM
IC50 ([6]; read-out: IC-50 MEAN): 155 µM
IC50 [7]: > 251 µM
IC50 ([8]; H522, logarithm of the concentration inhibiting growth by 50%, read-out: LOG(IC50) (converted)): 15.8 µM
IC50 ([8]; read-out: IC-50 MEAN): 14.3 µM
IC50 ([9]; H69, logarithm of the concentration inhibiting growth by 50%, read-out: LOG(IC50) (converted)): 100 µM
IC90 ([9]; Homo sapiens, NCI-H69): 269 µM
IC50 ([9]; Homo sapiens, NCI-H69, read-out: IC-50 MEAN): 95.5 µM
IC50 ([10]; H82, logarithm of the concentration inhibiting growth by 50%, read-out: LOG(IC50) (converted)): 39.8 µM
IC90 ([10]; Homo sapiens, NCI-H82): 172 µM
IC50 ([10]; Homo sapiens, NCI-H82, read-out: IC-50 MEAN): 36.7 µM
IC90 (LOVO (colon); LoVo): 262 µM
IC50 (LOVO (colon); LoVo, read-out: IC-50 MEAN): 96.6 µM
IC50 (LOVO (colon); LOVO, logarithm of the concentration inhibiting growth by 50%, read-out: LOG(IC50) (converted)): 100 µM
IC90 (LOX (melanoma)): 258 µM
IC50 (LOX (melanoma); [15]): 100 µM
IC50 (LOX (melanoma); read-out: IC-50 MEAN): 102 µM
IC50 ([11]; NCI/ADR-RES, MCF-7/ADR, read-out: IC-50 MEAN): 96 µM
IC50 ([11]; MCF-7/A, logarithm of the concentration inhibiting growth by 50%, read-out: LOG(IC50) (converted)): 100 µM
IC90 (OVCAR-3 (ovarian)): 270 µM
IC50 (OVCAR-3 (ovarian); [15]): 100 µM
IC50 (OVCAR-3 (ovarian); read-out: IC-50 MEAN): 96.6 µM
IC50 (OVCAR-4 (ovarian)): 251 µM
IC90 (P388): 248 µM
IC50 (P388; [15]): 100 µM
IC50 (P388; read-out: IC-50 MEAN): 114 µM
IC90 (SK-MEL2 (melanoma); SK-MEL-2): 174 µM
IC50 (SK-MEL2 (melanoma); SK-MEL-2, logarithm of the concentration inhibiting growth by 50%, read-out: LOG(IC50) (converted)): 79.4 µM
IC50 (SK-MEL2 (melanoma); SK-MEL-2, read-out: IC-50 MEAN): 73.5 µM
IC50 [12]: > 25.1 µM
IC90 [13]: 231 µM
IC50 [13, 15]: 79.4 µM
IC50 ([13]; read-out: IC-50 MEAN): 81.5 µM
IC90 (SW620 (colon); SW-620): 234 µM
IC50 (SW620 (colon); SW-620, logarithm of the concentration inhibiting growth by 50%, read-out: LOG(IC50) (converted)): 63.1 µM
IC50 (SW620 (colon); SW-620, read-out: IC-50 MEAN): 58 µM
IC90 [14]: 231 µM
IC50 [14, 15]: 126 µM
IC50 ([14]; read-out: IC-50 MEAN): 114 µM
